# Laboratory results from patent US20050203102A1, “antibacterial agents” (priority 2004, published 2005).
# Key:
# Assay in all cases: Antimicrobial testing, Agar Dilution Method (NCCLS), MIC
# Format in all cases: cell-based
# S. epidermidis MRO 02002 = details: Staphylococcus epidermidis, MRO02002, Mueller Hinton Agar, 35° C., 20 hours, read-out: Antimicrobial Screening (MIC) S. epidermidis MRO 02002
# Procedure: (§1) Briefly, the compounds of invention were weighed, dissolved in Dimethyl Sulfoxide, serially diluted in the same solvent and then incorporated into molten Mueller Hinton Agar in a petridish before solidification, with each petridish containing a different concentration of a compound.
# (§2) The Bacterial Inoculum was prepared by touching the tops of 3 to 5 well isolated bacterial colonies with the same morphological appearance from an 18 hour old culture with an inoculating loop, transferring the growth to a tube containing 5 ml of normal saline and adjusting the turbidity of the saline suspension to 0.5 Macfarland Turbidity Standard equivalent to a bacterial population of 1.5×10^8 colony forming units (CFU) per millilitre of suspension.
# (§3) The bacterial inoculum prepared in the above manner was inoculated onto petri dishes containing Mueller Hinton Agar which had earlier been incorporated with different dilutions of the compounds of invention by a Multipoint Inoculator with each inoculum spot containing approximately 1×10^4 colony forming units (CFU) of bacteria.
# (§4) The inoculated petridishes were incubated at 35° C. in an ambient atmosphere for 20 hours. Petridishes containing different concentrations of Vancomycin and Oxacillin and inoculated with Staphylococcus aureus, Coagulase Negative Staphylococci and Enterococci were incubated for 24 hours.
# (§5) The following minimum inhibitory concentrations (μg/ml) were obtained for representative compounds of the invention which are given in the following table: […]
# E. faecium ATCC 700221 = details: Enterococcus faecium, ATCC700221, Mueller Hinton Agar, 35° C., 20 hours, read-out: Antimicrobial Screening (MIC) E. faecium ATCC 700221
# Procedure: as §1, §2, §3, §4, §5
# S. aureus MRO 00001 = details: Staphylococcus aureus, MRO00001, Mueller Hinton Agar, 35° C., 20 hours, read-out: Antimicrobial Screening (MIC) S. aureus MRO 00001
# Procedure: as §1, §2, §3, §4, §5
# E. faecalis ATCC 29212 = details: Enterococcus faecalis, ATCC29212, Mueller Hinton Agar, 35° C., 20 hours, read-out: Antimicrobial Screening (MIC) E. faecalis ATCC 29212
# Procedure: as §1, §2, §3, §4, §5
Compound,MIC (S. epidermidis MRO 02002) [µg/mL],MIC (E. faecium ATCC 700221) [µg/mL],MIC (S. aureus MRO 00001) [µg/mL],MIC (E. faecalis ATCC 29212) [µg/mL]
CCOC(=O)NC[C@H]1CN(c2ccc(N3CCN(c4ccc(CC5C(=O)Nc6ccccc65)cc4)CC3)c(F)c2)C(=O)O1 (some centres unmarked) [Example 15],> 16,> 16,> 16,> 16
"COC(=S)NC[C@H]1CN(c2ccc(N3CCN(c4ccc(/C=C5\SC(=O)NC5=O)cc4)CC3)c(F)c2)C(=O)O1 [Example 8, (S)-N-3-[3-fluoro-4-(4-(5-methylene-1,3-thiazolidine-2,4-dione)phenylpiperazin-1-yl)phenyll-1,3-oxazolidin-2-one-5-methylthio carbamate]",0.5,0.5,0.5,0.5
CC(=O)NC[C@H]1CN(c2ccc(N3CCN(c4ccc(/C=C5/SC(=O)NC5=O)cc4)CC3)c(F)c2)C(=O)O1 [Example 4],1,1,1,1
CCOC(=O)NC[C@H]1CN(c2ccc(N3CCN(c4ccc(/C=C5/SC(=S)N(CC(=O)O)C5=O)cc4)CC3)c(F)c2)C(=O)O1 [Example 12],> 16,> 16,> 16,> 16
CC(=O)NC[C@H]1CN(c2ccc(N3CCN(c4ccc(CC5SC(=O)NC5=O)cc4)CC3)c(F)c2)C(=O)O1 (some centres unmarked) [Example 7],8,8,8,8
"COC(=O)NC[C@H]1CN(c2ccc(N3CCN(c4ccc(/C=C5\SC(=O)NC5=O)cc4)CC3)c(F)c2)C(=O)O1 [Example 9, (S)-N-3-13-fluoro-4-(4-(5-methylene-1,3-thiazolidine-2,4-dione)phenylpiperazin-1-yl)phenyll-1,3-oxazolidin-2-one-5-methyl carbamate]",2,0.5,1,1
COC(=O)NC[C@H]1CN(c2ccc(N3CCN(c4ccc(CC5C(=O)Nc6ccccc65)cc4)CC3)c(F)c2)C(=O)O1 (some centres unmarked) [Example 17],4,4,4,4
CC(=O)NC[C@H]1CN(c2ccc(N3CCN(c4ccc(CC5C(=O)Nc6ccccc65)cc4)CC3)c(F)c2)C(=O)O1 (some centres unmarked) [Example 6],4,4,4,4
"COC(=O)NC[C@H]1CN(c2ccc(N3CCN(c4ccc(CC5SC(=O)NC5=O)cc4)CC3)c(F)c2)C(=O)O1 (stereo partly drawn) [Example 14, [(5S)-3-[3-fluoro-4-(4-(5-methy-1,3-thiazolidine-2,4-dione)phenylpiperazin-1-yl)phenyll-1,3-oxazolidin-2-one-5-methyl carbamate]",8,4,8,8
CC(=O)NC[C@H]1CN(c2ccc(N3CCN(c4ccc(/C=C5/SC(=S)N(CC(=O)O)C5=O)cc4)CC3)c(F)c2)C(=O)O1 [Example 2],2,2,2,2
CC(=O)NC[C@H]1CN(c2ccc(N3CCN(c4ccc(/C=C5/SC(=S)NC5=O)cc4)CC3)c(F)c2)C(=O)O1 [Example 5],1,1,1,2
COC(=O)NC[C@H]1CN(c2ccc(N3CCN(c4ccc(/C=C5/SC(=S)NC5=O)cc4)CC3)c(F)c2)C(=O)O1 [Example 11],> 16,> 16,> 16,> 16
CC(=O)NC[C@H]1CN(c2ccc(N3CCN(c4ccc(/C=C5\C(=O)Nc6ccccc65)cc4)CC3)c(F)c2)C(=O)O1 [Example 3],> 16,16,> 16,> 16
CCOC(=O)NC[C@H]1CN(c2ccc(N3CCN(c4ccc(CC5SC(=S)NC5=O)cc4)CC3)c(F)c2)C(=O)O1 (some centres unmarked) [Example 16],> 16,> 16,> 16,> 16
CCOC(=O)NC[C@H]1CN(c2ccc(N3CCN(c4ccc(/C=C5/SC(=S)NC5=O)cc4)CC3)c(F)c2)C(=O)O1 [Example 13],> 16,> 16,> 16,> 16
CC(=O)NC[C@H]1CN(c2ccc(N3CCN(c4ccc(C=O)cc4)CC3)c(F)c2)C(=O)O1 [Example 1],1,1,1,2
COC(=O)NC[C@H]1CN(c2ccc(N3CCN(c4ccc(/C=C5/SC(=S)N(CC(=O)O)C5=O)cc4)CC3)c(F)c2)C(=O)O1 [Example 10],8,8,8,8
